Assay results taken from US11203600B2 (Denali Therapeutics Inc., priority 2017, dated 2021).

molecular target: GST-hRIPK1 (8-327) (Homo sapiens (Human), UniProt Q13546); experiment: Fluorescent Polarization Binding (FP Binding) assay, RIPK1; conditions: 10 nM GST-hRIPK1 (8-327), 5 nM fluorescent-labeled ligand, RT, 30 min, mean of at least two independent experiments
Outline: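 Binding by fluorescence polarisation at RT: 10 nM baculovirus-expressed GST-hRIPK1 (8-327) and 5 nM fluorescent ligand, 30 min, in 50 mM HEPES pH 7.5, 50 mM MgCl2, 0.02% CHAPS, 1% DMSO. FP read at ex 531/em 595 nm. IC50 from normalised percent inhibition, mean of ≥2 experiments.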

Chain of GST-hRIPK1 (8-327) (Q13546 8-327): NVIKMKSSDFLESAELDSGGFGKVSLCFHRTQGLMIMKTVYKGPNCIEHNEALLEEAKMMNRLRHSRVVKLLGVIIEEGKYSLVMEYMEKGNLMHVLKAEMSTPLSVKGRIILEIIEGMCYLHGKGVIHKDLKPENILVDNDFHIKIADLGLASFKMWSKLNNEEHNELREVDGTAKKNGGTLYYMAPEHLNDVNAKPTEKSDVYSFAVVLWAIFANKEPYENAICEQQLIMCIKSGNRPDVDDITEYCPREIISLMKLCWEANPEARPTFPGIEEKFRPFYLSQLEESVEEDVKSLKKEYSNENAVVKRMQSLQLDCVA

**Q.** With `CCC(C)(C)C(=O)N1CCOc2ccccc2C1` [Example 6, 1-(3,5-dihydro-2H-1,4-benzoxazepin-4-yl)-2,2-dimethyl-butan-1-one] as the molecule, how does the IC50 read?
**A.** The IC50 was 0.1 to 100 nM.

**Q.** With `N#Cc1cncc2c1OCCN(C(=O)C1(F)CCN(c3ncc(C(F)(F)F)cn3)CC1)C2` [Example 170, 4-[4-fluoro-1-[5-(trifluoromethyl)pyrimidin-2-yl]piperidine-4-carbonyl]-3,5-dihydro-2H-pyrido[3,4-f][1,4]oxazepine-9-carbonitrile] as the molecule, how does the IC50 read?
**A.** The IC50 was 100 to 1000 nM.

**Q.** `Cn1ncc2cnc(N3CCC(F)(C(=O)N4CCOc5c(C#N)cncc5C4)CC3)cc21` [Example 107, 4-[4-fluoro-1-(1-methylpyrazolo[4,3-c]pyridin-6-yl)piperidine-4-carbonyl]-3,5-dihydro-2H-pyrido[3,4-f][1,4]oxazepine-9-carbonitrile] was tested. Which IC50 did it give?
**A.** The IC50 was 100 to 1000 nM.

**Q.** `Cc1ocnc1C(=O)N1CCC(F)(C(=O)N2CCOc3c(C#N)cncc3C2)CC1` [Example 173, 4-[4-fluoro-1-(5-methyloxazole-4-carbonyl)piperidine-4-carbonyl]-3,5-dihydro-2H-pyrido[3,4-f][1,4]oxazepine-9-carbonitrile] was tested. Which IC50 did it give?
**A.** The IC50 was 100 to 1000 nM.

**Q.** Which IC50 does the source give for `CCC(C)(CC#N)C(=O)N1CCOc2c(C#N)cncc2C1` (stereo not drawn) [Example 74, 4-[2-(cyanomethyl)-2-methyl-butanoyl]-3,5-dihydro-2H-pyrido[3,4-f][1,4]oxazepine-9-carbonitrile] here?
**A.** Its IC50 is 0.1 to 100 nM.

**Q.** `CCC(C)(C)C(=O)N1Cc2cncc(C#N)c2OC[C@H]1C` [Example 75, (3R)-4-(2,2-dimethylbutanoyl)-3-methyl-3,5-dihydro-2H-pyrido[3,4-f][1,4]oxazepine-9-carbonitrile] was tested. Which IC50 did it give?
**A.** The IC50 was 0.1 to 100 nM.

**Q.** For `CC(C)(CC#N)C(=O)N1CCOc2c(C#N)cncc2C1` [Example 31, 4-(3-cyano-2,2-dimethyl-propanoyl)-3,5-dihydro-2H-pyrido[3,4-f][1,4]oxazepine-9-carbonitrile], which IC50 is on record?
**A.** The IC50 was 100 to 1000 nM.

**Q.** With `COc1ccnc(N2CCC(F)(C(=O)N3CCOc4c(C#N)cncc4C3)CC2)n1` [Example 103, 4-[4-fluoro-1-(4-methoxypyrimidin-2-yl)piperidine-4-carbonyl]-3,5-dihydro-2H-pyrido[3,4-f][1,4]oxazepine-9-carbonitrile] as the molecule, how does the IC50 read?
**A.** Its IC50 is 0.1 to 100 nM.

**Q.** With `COc1nc(N2CCC(F)(C(=O)N3CCOc4c(C#N)cncc4C3)CC2)nc(C)c1F` [Example 196, 4-[4-fluoro-1-(5-fluoro-4-methoxy-6-methyl-pyrimidin-2-yl)piperidine-4-carbonyl]-3,5-dihydro-2H-pyrido[3,4-f][1,4]oxazepine-9-carbonitrile] as the molecule, how does the IC50 read?
**A.** Its IC50 is 100 to 1000 nM.

**Q.** How did the IC50 turn out when `CC1(C(=O)N2CCOc3c(C#N)cncc3C2)CCN(c2ncc(F)cn2)CC1` [Example 40, 4-[1-(5-fluoropyrimidin-2-yl)-4-methyl-piperidine-4-carbonyl]-3,5-dihydro-2H-pyrido[3,4-f][1,4]oxazepine-9-carbonitrile] was run?
**A.** Its IC50 is 0.1 to 100 nM.

**Q.** How did the IC50 turn out when `COc1nc(N2CCC(OC)(C(=O)N3CCOc4c(C#N)cncc4C3)CC2)ncc1F` [Example 194, 4-[1-(5-fluoro-4-methoxy-pyrimidin-2-yl)-4-methoxy-piperidine-4-carbonyl]-3,5-dihydro-2H-pyrido[3,4-f][1,4]oxazepine-9-carbonitrile] was run?
**A.** Its IC50 is 0.1 to 100 nM.

**Q.** Which IC50 does the source give for `CC1(C(=O)N2CCOc3c(C#N)cncc3C2)CC1(F)F` (stereo not drawn) [Example 50, 4-(2,2-difluoro-1-methyl-cyclopropanecarbonyl)-3,5-dihydro-2H-pyrido[3,4-f][1,4]oxazepine-9-carbonitrile] here?
**A.** Its IC50 is 100 to 1000 nM.

**Q.** With `N#Cc1cncc2c1OCCN(C(=O)C1(F)CCN(c3ccnc4ccnn34)CC1)C2` [Example 110, 4-(4-fluoro-1-(pyrazolo[1,5-a]pyrimidin-7-yl)piperidine-4-carbonyl)-2,3,4,5-tetrahydropyrido[3,4-f][1,4]oxazepine-9-carbonitrile] as the molecule, how does the IC50 read?
**A.** The IC50 was 0.1 to 100 nM.

**Q.** With `CC1(C(=O)N2CCOc3c(C#N)cncc3C2)CCOC1` (stereo not drawn) [Example 42, 4-(3-methyltetrahydrofuran-3-carbonyl)-3,5-dihydro-2H-pyrido[3,4-f][1,4]oxazepine-9-carbonitrile] as the molecule, how does the IC50 read?
**A.** The IC50 was 100 to 1000 nM.

**Q.** Which IC50 does the source give for `N#Cc1cncc2c1OCCN(C(=O)C1(F)CCN(c3nccn4ccnc34)CC1)C2` [Example 106, 4-(4-fluoro-1-imidazo[1,2-a]pyrazin-8-yl-piperidine-4-carbonyl)-3,5-dihydro-2H-pyrido[3,4-f][1,4]oxazepine-9-carbonitrile] here?
**A.** Its IC50 is 100 to 1000 nM.

**Q.** For `CNc1nc(N2CCC(F)(C(=O)N3CCOc4c(C#N)cncc4C3)CC2)ncc1F` [Example 123, 4-[4-fluoro-1-[5-fluoro-4-(methylamino)pyrimidin-2-yl]piperidine-4-carbonyl]-3,5-dihydro-2H-pyrido[3,4-f][1,4]oxazepine-9-carbonitrile], which IC50 is on record?
**A.** Its IC50 is 100 to 1000 nM.

**Q.** Which IC50 does the source give for `CC(F)(F)C(C)(C)C(=O)N1CCOc2c(C#N)cncc2C1` [Example 142, 4-(3,3-difluoro-2,2-dimethyl-butanoyl)-3,5-dihydro-2H-pyrido[3,4-f][1,4]oxazepine-9-carbonitrile] here?
**A.** The IC50 was 0.1 to 100 nM.

**Q.** `CC(C)(C(=O)N1CCOc2c(F)cncc2C1)C(F)F` [Example 55, 3,3-difluoro-1-(9-fluoro-3,5-dihydro-2H-pyrido[3,4-f][1,4]oxazepin-4-yl)-2,2-dimethyl-propan-1-one] was tested. Which IC50 did it give?
**A.** The IC50 was 100 to 1000 nM.

**Q.** For `CC(C)(CC(F)F)C(=O)N1CCOc2c(C#N)cncc2C1` [Example 149, 4-(4,4-difluoro-2,2-dimethyl-butanoyl)-3,5-dihydro-2H-pyrido[3,4-f][1,4]oxazepine-9-carbonitrile], which IC50 is on record?
**A.** Its IC50 is 100 to 1000 nM.

**Q.** Which IC50 does the source give for `N#Cc1cncc2c1OCCN(C(=O)[C@]13CCN(c4ncc(F)cn4)C[C@H]1C3)C2` (relative stereo) [Example 89, 4-(cis-3-(5-fluoropyrimidin-2-yl)-3-azabicyclo[4.1.0]heptane-6-carbonyl)-3,5-dihydro-2H-pyrido[3,4-f][1,4]oxazepine-9-carbonitrile] here?
**A.** The IC50 was 0.1 to 100 nM.

**Q.** For `Cc1ccc2c(c1)CN(C(=O)C(C)(C)C(F)F)CCO2` [Example 11, 3,3-difluoro-2,2-dimethyl-1-(7-methyl-2,3-dihydrobenzo[f][1,4]oxazepin-4(5H)-yl)propan-1-one], which IC50 is on record?
**A.** Its IC50 is 100 to 1000 nM.

**Q.** For `CCC(C)(C(=O)N1CCOc2c(C#N)cncc2C1)C(F)F` (stereo not drawn) [Example 57, 4-(2-(difluoromethyl)-2-methylbutanoyl)-2,3,4,5-tetrahydropyrido[3,4-f][1,4]oxazepine-9-carbonitrile], which IC50 is on record?
**A.** Its IC50 is 0.1 to 100 nM.

same assay, conditions: GST-hRIPK1 (8-327), mean of at least two independent experiments

**Q.** Which IC50 does the source give for `N#Cc1cncc2c1OCCN(C(=O)C1CCN(c3nccn4ncnc34)C[C@@H]1F)C2` (stereo partly drawn) [Example 225, 4-[(3,4)-trans-3-fluoro-1-([1,2,4]triazolo[1,5-a]pyrazin-8-yl)piperidine-4-carbonyl]-3,5-dihydro-2H-pyrido[3,4-f][1,4]oxazepine-9-carbonitrile] here?
**A.** The IC50 was 0.1 to 100 nM.

**Q.** `N#Cc1cncc2c1OCCN(C(=O)C1CCN(c3nccc4ncnn34)C[C@@H]1F)C2` (stereo partly drawn) [Example 250, 4-[(3,4)-trans-3-fluoro-1-([1,2,4]triazolo[1,5-c]pyrimidin-5-yl)piperidine-4-carbonyl]-3,5-dihydro-2H-pyrido[3,4-f][1,4]oxazepine-9-carbonitrile] was tested. Which IC50 did it give?
**A.** The IC50 was 100 to 1000 nM.

**Q.** With `O=C(C1CCN(c2ccnc3c(F)cnn23)C[C@@H]1F)N1CCOc2c(F)cncc2C1` (stereo partly drawn) [Example 256, (9-fluoro-3,5-dihydro-2H-pyrido[3,4-f][1,4]oxazepin-4-yl)-[(3,4)-trans-3-fluoro-1-(3-fluoropyrazolo[1,5-a]pyrimidin-7-yl)-4-piperidyl]methanone] as the molecule, how does the IC50 read?
**A.** The IC50 was 0.1 to 100 nM.

**Q.** For `N#Cc1cncc2c1OCCN(C(=O)C1CCN(c3ccnc4c(F)cnn34)C[C@@H]1F)C2` (stereo partly drawn) [Example 226, 4-[(3,4)-trans-3-fluoro-1-(3-fluoropyrazolo[1,5-a]pyrimidin-7-yl)piperidine-4-carbonyl]-3,5-dihydro-2H-pyrido[3,4-f][1,4]oxazepine-9-carbonitrile], which IC50 is on record?
**A.** The IC50 was 0.1 to 100 nM.

**Q.** How did the IC50 turn out when `N#Cc1cncc2c1OCCN(C(=O)C1CCN(c3ncc(F)cn3)CCO1)C2` (stereo not drawn) [Example 231, 4-[4-(5-fluoropyrimidin-2-yl)-1,4-oxazepane-7-carbonyl]-3,5-dihydro-2H-pyrido[3,4-f][1,4]oxazepine-9-carbonitrile] was run?
**A.** Its IC50 is greater than 1000 nM.

**Q.** With `[2H]C1([2H])Oc2c(C#N)cncc2CN(C(=O)C(C)(C)C(F)F)C1([2H])[2H]` [Example 263, 2,2,3,3-tetradeuterio-4-(3,3-difluoro-2,2-dimethyl-propanoyl)-5H-pyrido[3,4-f][1,4]oxazepine-9-carbonitrile] as the molecule, how does the IC50 read?
**A.** Its IC50 is 0.1 to 100 nM.

**Q.** Which IC50 does the source give for `N#Cc1cncc2c1OCCN(C(=O)C1CCN(c3ncc(F)cn3)CC1(F)F)C2` (stereo not drawn) [Example 243, 4-[3,3-difluoro-1-(5-fluoropyrimidin-2-yl)piperidine-4-carbonyl]-3,5-dihydro-2H-pyrido[3,4-f][1,4]oxazepine-9-carbonitrile] here?
**A.** Its IC50 is 100 to 1000 nM.

**Q.** With `CCC(C)(C(=O)N1CCOc2c(C#N)cncc2C1)C(F)F` (single isomer, unassigned) [Example 260, 4-(2-(Difluoromethyl)-2-methylbutanoyl)-2,3,4,5-tetrahydropyrido[3,4-f][1,4]oxazepine-9-carbonitrile] as the molecule, how does the IC50 read?
**A.** The IC50 was 0.1 to 100 nM.

**Q.** With `N#Cc1cncc2c1OCCN(C(=O)C1CCN(c3ccnc4c(F)cnn34)CC1)C2` [Example 228, 4-[1-(3-fluoropyrazolo[1,5-a]pyrimidin-7-yl)piperidine-4-carbonyl]-3,5-dihydro-2H-pyrido[3,4-f][1,4]oxazepine-9-carbonitrile] as the molecule, how does the IC50 read?
**A.** The IC50 was 0.1 to 100 nM.

**Q.** `O=C(C1CCN(c2ncc(F)cn2)CC1)N1CCCc2ccccc2C1` [Example 203, [1-(5-fluoropyrimidin-2-yl)-4-piperidyl]-(1,3,4,5-tetrahydro-2-benzazepin-2-yl)methanone] was tested. Which IC50 did it give?
**A.** Its IC50 is 100 to 1000 nM.

**Q.** Which IC50 does the source give for `N#Cc1cncc2c1OCCN(C(=O)C1CCN(c3ccnc4c(Cl)cnn34)CC1)C2` [Example 229, 4-[1-(3-chloropyrazolo[1,5-a]pyrimidin-7-yl)piperidine-4-carbonyl]-3,5-dihydro-2H-pyrido[3,4-f][1,4]oxazepine-9-carbonitrile] here?
**A.** The IC50 was 0.1 to 100 nM.
